Patent US20080161407A1, “METHODS FOR TREATING METABOLIC SYNDROME” (Abbott Laboratories, priority 2003, published 2008)
Where two headings read alike, the source gives them in different places.

What was measured:
[1] = STORM trial, subjects that had metabolic syndrome at study entry; format: in vivo, human; settings: change from baseline to latest assessment after month 6 up to month 12
From the text: (§1) The benefits of sibutramine therapy can be extended to subjects with metabolic syndrome. The treatment effect of sibutramine on subjects that had metabolic syndrome at study entry in the STORM trial and by a pooled analysis of double-blind, placebo-controlled, non-diabetic studies of at least 6 months duration were studied. Subjects were identified who had increased abdominal obesity (waist circumference), decreased HDL cholesterol, and elevated triglycerides (TG) at baseline, and who also completed at least 6 months of sibutramine treatment (pooled analysis subjects: 266 sibutramine, 134 placebo; STORM: 80 sibutramine). Since all subjects in the STORM trial received sibutramine for the first 6 months of the study, only subjects subsequently randomized to receive sibutramine for a longer duration were included. The analyses for each variable were based on change from baseline to latest assessment after month 6, up to and including month 12.

[2] = Pooled analysis of double-blind, placebo-controlled, non-diabetic studies of at least 6 months in subjects with metabolic syndrome at baseline; format: in vivo, human; settings: change from baseline to latest assessment after month 6 up to month 12; compared to placebo
From the text: as §1

[3] = cited from earlier work
[4] = compared to placebo; cited from earlier work
[5] = subjects who lost and maintained weight, compared to baseline values of all subjects

Question: With `CC(C)CC(N(C)C)C1(c2ccc(Cl)cc2)CCC1` (centres unmarked) [sibutramine, N,N-dimethyl-1-[1-(4-chlorophenyl)cyclobutyl]-3-methylbutylamine] as the compound, how does the HDL [1] read?
Answer: favorable changes

Question: And the TG [1]?
Answer: favorable changes

Question: What about the waist circumference [1] of the same compound?
Answer: favorable changes

Question: What about the weight loss [1] of the same compound?
Answer: favorable changes

Question: And the HDL [2]?
Answer: clinically and statistically significant improvements

Question: What about the TG [2] of the same compound?
Answer: clinically and statistically significant improvements

Question: And the waist circumference [2]?
Answer: clinically and statistically significant improvements

Question: And the weight loss [2]?
Answer: clinically and statistically significant improvements

Question: And the “subjects who maintained at least 80% of their month six weight loss” value ([3]; at two years, subjects who completed the trial, placebo 16%)?
Answer: 43%

Question: What about the “mean fasting insulin levels” value ([3]; at two years) of the same compound?
Answer: reduced

Question: What about the “subjects who maintained ≧10% weight reduction” value ([3]; end of two years of treatment, placebo 21%) of the same compound?
Answer: 46%

Question: What about the “subjects who maintained ≧5% weight reduction” value ([3]; end of two years of treatment, placebo 44%) of the same compound?
Answer: 69%

Question: And the mean weight loss ([3]; first six months of sibutramine treatment)?
Answer: 26 lbs

Question: What about the “subjects who achieved a ≧5% weight reduction” value ([3]; of the 499 subjects who completed the first six months, sibutramine with reduced calorie diet and increased physical activity) of the same compound?
Answer: 94%

Question: And the HDL cholesterol [3, 5]?
Answer: clinically and statistically significant improvements

Question: And the triglycerides [3, 5]?
Answer: clinically and statistically significant improvements

Question: And the waist circumference [3, 5]?
Answer: clinically and statistically significant improvements

Question: And the impaired fasting glucose ([3]; subjects who lost and maintained weight)?
Answer: significantly changed

Question: What about the HDL cholesterol [4] of the same compound?
Answer: significant improvements

Question: What about the “fasting blood glucose levels” value [4] of the same compound?
Answer: not significantly changed

Question: What about the insulin levels [4] of the same compound?
Answer: significant improvements

Question: And the triglyceride levels [4]?
Answer: significant improvements

Question: What about the “waist circumference (a measure for abdominal obesity)” value [4] of the same compound?
Answer: significant improvements
